Results as given in PMC4788259 (PLoS Neglected Tropical Diseases, 2016).

Test system: E. multilocularis metacestodes
Test: PGI assay: phosphoglucose isomerase release from damaged metacestodes
Type: cell-based, Echinococcus multilocularis
Conditions: 10 μM, 5 days, single wells, relative to DB1127 (10 μM)
Procedure: The preparation of E. multilocularis metacestode material (strain H95) from intraperitoneally (i.p.) infected BALB/c mice was performed as described earlier. Metacestode vesicles were used for in vitro drug screening when they reached 2 to 4 mm in diameter.
For screening of the Malaria Box against E. multilocularis metacestodes, the PGI screening assay was applied that measures the release of the enzyme phosphoglucose isomerase (PGI) upon physical impairment of metacestodes. The screening setup was done in 24 well plates as described by Stadelmann et al. For initial screening, each drug was applied at 10 μM to metacestodes in single wells. As a positive control-drug, the dicationic diguanidino compound DB1127 (10 μM) was used and 0.1% DMSO was added as negative control. Metacestodes were cultured in the presence of the compounds for 5 days, after which PGI release was quantified exactly as stated in Stadelmann et al. […] Averages, standard deviations and EC50 values were calculated in Microsoft Excel 2010.

Row | Structure (SMILES) | PGI (% of DB1127 at 10 uM) [%]
1 | Cc1ccc(Nc2nc(N)c3ccccc3n2)cc1Cl [MMV011522] | 12.79
2 | CCOc1cc(Cl)c(C(C)NC(=O)c2ccccc2)cc1OCC (stereo not drawn) [MMV665800] | -123.29
3 | COc1cccc(C2(C)Nc3ccccc3-c3nc4ccccc4n32)c1 (stereo not drawn) [MMV396719] | 6.50
4 | COc1cc(-c2nc(-c3ccc(Sc4ccccc4)cc3)c(-c3ccccc3)[nH]2)cc(OC)c1O [MMV007273] | -7.16
5 | O=C(NC1CCN(Cc2ccccc2)CC1)c1cc(C(=O)NC2CCN(Cc3ccccc3)CC2)cc(C(=O)NC2CCN(Cc3ccccc3)CC2)c1 [MMV019881] | 9.54
6 | COc1ccc(C(C)=O)cc1N1C(=O)C2C(C1=O)C1(c3ccccc3)C(=O)C2(c2ccccc2)C(c2ccc(C)cc2)=C1c1ccc(C)cc1 (stereo not drawn) [MMV007695] | 4.56
7 | COCCNCC(O)Cn1c2ccc(Cl)cc2c2cc(Cl)ccc21 (stereo not drawn) [MMV019017] | 20.81
8 | Cc1ccc(C(=O)c2oc3ccc4c(C)cc(=O)oc4c3c2C)cc1 [MMV086103] | -6.30
9 | CCOc1ccc(Nc2ccnc3cc(Cl)ccc23)cc1 [MMV007285] | -9.06
10 | CCCCCCOC(=O)C1=C(C)NC(=O)NC1c1ccccc1F (stereo not drawn) [MMV007686] | -24.58
11 | CSc1ccccc1C(=O)Nc1nc(-c2ccccn2)cs1 [MMV001246] | -29.53
12 | COc1ccc(C2C(C(=O)Nc3cccc(OC)c3)c3ccccc3C(=O)N2C2CCCCC2)cc1 (stereo not drawn) [MMV008455] | -12.94
13 | COc1ccc(N2CCN(C(CNC(=O)CC(C)(C)C)c3ccc4c(c3)OCO4)CC2)cc1 (stereo not drawn) [MMV665908] | -6.01
14 | COc1ccc2c(c1)OC(O)(C(F)(F)C(F)(F)F)CC2=O (stereo not drawn) [MMV007839] | 50.23
15 | CN(C)CCCNc1c2ccccc2nc2ccccc12 [MMV000448] | -25.46
16 | Cc1sc2ncnc(Sc3nc4ccccc4[nH]3)c2c1C [MMV019266] | -32.46
17 | CCCCc1c(CCC)c(=N)c2ccccc2n1C.I [MMV007764] | 29.51
18 | COc1ccc(-n2ccnc2SCC(=O)Nc2cc(C)ccc2C)c(OC)c1 [MMV019258] | -33.26
19 | Cl.Cn1c(=O)n(C)c2cc(CNCCNc3ccnc4cc(Cl)ccc34)ccc21 [MMV665875] | 7.55
20 | COc1ccc(C2c3ccc4ccccc4c3Oc3ncn(CCCn4ccnc4)c(=N)c32)cc1OC (stereo not drawn) [MMV667490] | -1.19
21 | CC(C)CNC(=O)c1c(N)n(CCc2ccccc2F)c2nc3ccccc3nc12 [MMV396744] | -10.23
22 | Fc1ccc2[nH]c3c(NCCCN4CCOCC4)ncnc3c2c1 [MMV019871] | -31.05
23 | CCOc1cc(Cl)c(C(C)NC(=O)c2cccc(OC)c2)cc1OCC (stereo not drawn) [MMV665803] | -50.18
24 | CCOC(=O)C1=C(C)N=c2sc(=Cc3ccccc3O)c(=O)n2C1c1ccc(OC)c2ccccc12 (stereo not drawn) [MMV666604] | -9.67
25 | Cl.Clc1cc(Br)ccc1-c1ccc(CNCC2CCNCC2)o1 [MMV019918] | -10.89

Row | Structure (SMILES) | PGI (% of DB1127 at 10 uM) [%]
26 | Cc1cc(NC(=O)c2cccc(C(F)(F)F)c2)n(-c2nc(-c3ccc4c(c3)OCO4)cs2)n1 [MMV396681] | -33.55
27 | FC(F)(F)c1cccc(CNC2CCN(CCc3ccccc3)CC2)c1 [MMV665979] | -152.47
28 | Cc1ccccc1OCCSc1nc2ccc(NC(=O)c3cccs3)cc2s1 [MMV007396] | -6.56
29 | COc1ccccc1CNC(=O)CCn1c(=O)[nH]c2ccsc2c1=O [MMV019066] | -44.92
30 | COc1ccc(/C=C2/SC(=Nc3ccccc3)NC2=O)cc1 [MMV665836] | -11.27
31 | COc1cccc(NC(=O)Cn2c(C)c(C#N)c3ccccc32)c1 [MMV665826] | -17.93
32 | CCCCCCc1cc2cc(-c3csc(C=Cc4ccccc4)n3)c(=O)oc2cc1O [MMV666692] | -4.22
33 | O=C(O)C(=O)O.Oc1ccccc1CN1CCN(C(c2ccccc2)c2ccccc2)CC1 [MMV011795] | -19.79
34 | CCOc1cccc(C(=O)Nc2ccc(-c3nc4ccccc4[nH]3)cc2)c1 [MMV019202] | -27.17
35 | O=c1nc(C=Cc2ccc(Br)cc2)oc2ccccc12 [MMV666599] | 22.37
36 | COc1cc(C(=O)ON=C(N)Cc2cccc3ccccc23)cc(OC)c1OC [MMV666687] | 1.57
37 | CCOc1ccc(-c2nc(NC(=O)c3cccc(S(C)(=O)=O)c3)sc2C)cc1 [MMV665913] | -25.30
38 | COc1ccc2nc(C)cc(Nc3cccc(O)c3)c2c1.Cl [MMV008212] | -12.96
39 | N=c1n(CCN2CCCCC2)c2ccccc2n1CC(=O)c1ccc(Cl)c(Cl)c1 [MMV396723] | 22.11
40 | COc1ccc(CNC2CCN(c3ccc(NC(=O)c4cccc(Cl)c4)cc3)CC2)cc1OC [MMV666067] | -35.43
41 | Cc1cccc(-n2ncc3c(O)nc(-n4nc(C)cc4NC(=O)c4cc5ccccc5o4)nc32)c1 [MMV403679] | -25.18
42 | COc1cccc(NC(=O)[C@H](C(C)C)n2c(=O)[nH]c3ccccc3c2=O)c1 [MMV665878] | -74.00
43 | Cc1cc(NC(=O)C2c3ccccc3C(=O)N(CC(C)C)C2c2cccs2)no1 (stereo not drawn) [MMV006429] | -37.87
44 | O=C(NCCCN1CCC(N2CCCCC2)CC1)C1=Cc2cc(Br)ccc2OC1 [MMV019995] | 11.48
45 | CCCn1c(=N)c(C(=O)NC2CCCCC2)cc2c(=O)n3cccc(C)c3nc21 [MMV008829] | -2.96
46 | CCOC(=O)c1c[nH]c2c(CC)cccc2c1=O [MMV498479] | -7.93
47 | O=C1c2ccccc2-c2nnc(-c3ccc(Br)cc3)cc21 [MMV665934] | -7.23
48 | CCCc1cc(O)c2c3c(c(=O)oc2c1)CN(C)CC3 [MMV665841] | -34.14
49 | CCOC(=O)C1=CN(C)C=C(C(=O)OCC)C1c1cc(Br)c(OCC)c(OC)c1 [MMV006656] | 16.40
50 | CCOc1ccc(-c2nonc2NC(=O)c2cccc(C)c2)cc1OCC [MMV665805] | -25.24

Row | Structure (SMILES) | PGI (% of DB1127 at 10 uM) [%]
51 | CC(=O)Nc1nnc(SCc2c(C)cc(C(C)(C)C)cc2C)s1 [MMV020700] | 1.07
52 | CN1CCN(c2c3c(c(C#N)c4nc5ccccc5n24)CCC3)CC1 [MMV008127] | -35.30
53 | O=C(CCc1ccco1)NC1CCN(CC2(c3ccc(Cl)cc3)CCC2)CC1 [MMV666108] | -18.89
54 | O=[N+]([O-])c1ccc(C=NNc2nc3ccccc3[nH]2)cc1 [MMV666607] | -48.05
55 | CCCOCc1cc(CN2CCN(c3cccc(Cl)c3)CC2)c(O)c2ncccc12 [MMV000787] | 45.98
56 | COc1ccc(-c2c(C)nn3c(N)c(C#N)cnc23)cc1OC [MMV396797] | -51.42
57 | CCOc1ccc(N2C(N)=NC(N)=NC2(C)C)cc1.Cl [MMV667486] | -3.47
58 | Cc1cc(=O)oc2c1ccc1oc(C(=O)c3ccccc3)c(C)c12 [MMV006753] | -7.57
59 | CSC1=NC(=Nc2c(C)cccc2C)C2(CCC(C(C)(C)C)CC2)N1c1ccc(Cl)cc1 (stereo not drawn) [MMV666596] | -70.72
60 | CCOc1cc2c(cc1OCC)C(c1cc(Cl)c(O)c(OCC)c1)NCC2 (stereo not drawn) [MMV000481] | -21.47
61 | CCCCC(O)(c1ccc(Cl)cc1)C(CN1CCOCC1)c1ccc(Cl)cc1.Cl (stereo not drawn) [MMV000619] | -6.41
62 | O=C(NCc1ccco1)C1CCN(S(=O)(=O)c2ccc(Cl)cc2)CC1 [MMV006188] | -16.08
63 | Cc1sc(NC(=O)c2ccccc2)c(C(c2cccs2)N2CCN(c3ccccc3)CC2)c1C (stereo not drawn) [MMV396652] | -26.88
64 | CCC1(C)CC(CCNCc2ccccc2O)(c2ccc(C)cc2)CCO1 (stereo not drawn) [MMV019406] | -21.13
65 | O=C(Cc1ccccc1)NC(c1ccc(Cl)cc1)c1c(O)ccc2ccccc12 (stereo not drawn) [MMV665972] | 15.67
66 | CCCCCCc1cc2cc(-c3nc4ccccc4[nH]3)c(=Nc3ccccc3C)oc2cc1O [MMV666597] | -1.88
67 | CCOC(=O)c1cnc2ccc(Cl)cc2c1NCCCN(C)C [MMV006882] | 9.75
68 | CCN1CCN(Cc2ccc(NC(=O)c3cc4ccc5cccnc5c4[nH]3)cc2)CC1 [MMV020548] | -26.47
69 | COCCNC(=O)c1ccc(OC2CCN(Cc3ccc(F)c(F)c3)CC2)c(Cl)c1 [MMV666072] | -116.21
70 | O=C(CSc1ccc2nnc(-c3cccc(F)c3)n2n1)Nc1ccc2c(c1)OCO2 [MMV665918] | -24.34
71 | Cc1cc(N2CCCC2)nc(Nc2ccc(NC(=O)CCc3ccccc3)cc2)n1 [MMV396669] | -21.92
72 | CCOC(=O)c1cnc2ccc(OC)cc2c1Nc1ccc(N2CCN(C)CC2)cc1 [MMV000704] | 8.26
73 | COc1ccc(-c2nc3cc(Cc4ccc5[nH]c(-c6ccc(OC)cc6)nc5c4)ccc3[nH]2)cc1 [MMV007384] | 61.95
74 | CCOc1ccccc1CNC(=O)C1c2ccccc2C(=O)N(CC(C)C)C1c1cccs1 (stereo not drawn) [MMV000653] | -120.29
75 | Cc1cccc(N2C(=O)C3C(C2=O)C2(c4ccccc4)C(=O)C3(c3ccccc3)C(c3ccc4c(c3)OCO4)=C2c2ccc3c(c2)OCO3)c1 (stereo not drawn) [MMV007228] | 7.95
